Experimental data from publication PMC6274419, “Synthesis and Anticancer Activities of Glycyrrhetinic Acid Derivatives” (Molecules, 2016).
Counter-ions that a name gives are not always drawn. Like-named read-outs stand apart in the source and are kept apart here.

Assays:
hTERT-RPE1 cells = test: MTT cytotoxicity assay, hTERT-RPE1 normal cells; assay type: cell-based, human; details: read-out: IC50 hTERT-RPE1
Procedure: (§1) The anticancer activities of compounds 17–24, 41–56 against MCF-7, MDA-MB-231 and hTERT-RPE1 cells were determined in vitro by an MTT assay. […] The data was calculated and presented as IC50 values in Table 1.
(§2) The cytotoxicities of the compounds were evaluated by the MTT assay, which is based on the conversion of MTT to formazan crystals by mitochondrial dehydrogenases. […] The medium was incubated with 20 μL of 5 mg/mL MTT solution for 3 h in a humidified incubator containing 5% CO2. The purple coloured formazan crystals formed in the wells were dissolved in DMSO and their absorbances were measured at 570 nm with a microplate reader. Cell viability was expressed as a percentage of the value in control cultures.

MDA-MB-231 cells = test: MTT cytotoxicity assay, MDA-MB-231; assay type: cell-based, human; details: read-out: IC50 MDA-MB-231
Procedure: The data was calculated and presented as IC50 values in Table 1.
as §2

MCF-7 cells = test: MTT cytotoxicity assay, MCF-7; assay type: cell-based, human; details: read-out: IC50 MCF-7
Procedure: as §1, §2

[1] = normal human retinal pigment epithelial cell line hTERT-RPE1, MTT method, 24 h treatment, mean ± SD
[2] = human breast cancer cell line MDA-MB-231, MTT method, 24 h treatment, mean ± SD
[3] = MCF7, human breast cancer cell line MCF-7, MTT method, 24 h treatment, mean ± SD

Compound	IC50 (hTERT-RPE1 cells; [1]) [µM]	IC50 (MDA-MB-231 cells; [2]) [µM]	IC50 (MCF-7 cells; [3]) [µM]	IC50 (hTERT-RPE1 cells; Homo sapiens, hTERT-RPE1, 24 h) [µM]	IC50 (MDA-MB-231 cells; Homo sapiens, MDA-MB-231, 24 h) [µM]	IC50 (MCF-7 cells; Homo sapiens, MCF7, 24 h) [µM]	melting point [°C]
COC(=O)/C=C/c1ccc(OC(=O)[C@@]2(C)CC[C@]3(C)CC[C@]4(C)C(=CC(=O)[C@@H]5[C@@]6(C)CC[C@H](OC(=O)[C@@H](N)CCSC)C(C)(C)[C@@H]6CC[C@]54C)[C@@H]3C2)c(OC)c1 [Compound 41, Ferulic acid methyl ester 3β-(l-methionine)-11-oxo-olean-12-en-30-oate hydrochloride]	10.4 ± 0.8	3.52 ± 0.61	6 ± 0.43	–	–	–	–
CCOC(=O)/C=C/c1ccc(OC(=O)[C@@]2(C)CC[C@]3(C)CC[C@]4(C)C(=CC(=O)[C@@H]5[C@@]6(C)CC[C@H](OC(=O)[C@@H](N)CC[Se]C)C(C)(C)[C@@H]6CC[C@]54C)[C@@H]3C2)cc1 [Compound 48, trans-4-Hydroxycinnamic acid ethyl ester 3β-(l-selenomethionine)-11-oxo-olean-12-en-30-oate hydrochloride]	–	–	–	7.08 ± 0.73	1.86 ± 0.29	2.42 ± 0.23	–
COC(=O)/C=C/c1ccc(OC)c(OC(=O)[C@@]2(C)CC[C@]3(C)CC[C@]4(C)C(=CC(=O)[C@@H]5[C@@]6(C)CC[C@H](OC(=O)[C@@H](N)CCSC)C(C)(C)[C@@H]6CC[C@]54C)[C@@H]3C2)c1 (as salt: hydrochloride) [Compound 49, Isoferulic acid methyl ester 3β-(l-methionine)-11-oxo-olean-12-en-30-oate hydrochloride]	–	–	–	–	–	–	199 to 201
CCOC(=O)/C=C/c1ccc(OC(=O)[C@@]2(C)CC[C@]3(C)CC[C@]4(C)C(=CC(=O)[C@@H]5[C@@]6(C)CC[C@H](OC(=O)[C@@H](N)CC[Se]C)C(C)(C)[C@@H]6CC[C@]54C)[C@@H]3C2)cc1 (as salt: hydrochloride) [Compound 48, trans-4-Hydroxycinnamic acid ethyl ester 3β-(l-selenomethionine)-11-oxo-olean-12-en-30-oate hydrochloride]	–	–	–	–	–	–	208 to 211
CCOC(=O)/C=C/c1ccc(OC)c(OC(=O)[C@@]2(C)CC[C@]3(C)CC[C@]4(C)C(=CC(=O)[C@@H]5[C@@]6(C)CC[C@H](OC(=O)[C@@H](N)CCSC)C(C)(C)[C@@H]6CC[C@]54C)[C@@H]3C2)c1 [Compound 51, Isoferulic acid ethyl ester 3β-(l-methionine)-11-oxo-olean-12-en-30-oate hydrochloride]	12.5 ± 0.4	4.67 ± 0.74	8.81 ± 0.2	–	–	–	–
COC(=O)/C=C/c1ccc(OC)c(OC(=O)[C@@]2(C)CC[C@]3(C)CC[C@]4(C)C(=CC(=O)[C@@H]5[C@@]6(C)CC[C@H](OC(=O)[C@@H](N)CC[Se]C)C(C)(C)[C@@H]6CC[C@]54C)[C@@H]3C2)c1 [Compound 50, Isoferulic acid methyl ester 3β-(l-selenomethionine)-11-oxo-olean-12-en-30-oate hydrochloride]	–	–	–	9.79 ± 0.37	3.13 ± 0.45	5.12 ± 0.58	–
CCOC(=O)/C=C/c1ccc(OC(=O)[C@@]2(C)CC[C@]3(C)CC[C@]4(C)C(=CC(=O)[C@@H]5[C@@]6(C)CC[C@H](OC(=O)[C@@H](N)CCSC)C(C)(C)[C@@H]6CC[C@]54C)[C@@H]3C2)c(OC)c1 [Compound 43, Ferulic acid ethyl ester 3β-(l-methionine)-11-oxo-olean-12-en-30-oate hydrochloride]	16.3 ± 0.51	5.36 ± 0.44	8.62 ± 0.23	–	–	–	–
COC(=O)/C=C/c1cccc(OC(=O)[C@@]2(C)CC[C@]3(C)CC[C@]4(C)C(=CC(=O)[C@@H]5[C@@]6(C)CC[C@H](OC(=O)[C@@H](N)CCSC)C(C)(C)[C@@H]6CC[C@]54C)[C@@H]3C2)c1 [Compound 53, trans-3-Hydroxycinnamic acid methyl ester 3β-(l-methionine)-11-oxo-olean-12-en-30-oate hydrochloride]	8.49 ± 0.51	3.54 ± 0.46	7.2 ± 0.55	–	–	–	–
COc1cccc2c1C(=O)c1c(O)c3c(c(O)c1C2=O)C[C@@](O)(C(=O)CO)C[C@@H]3O[C@H]1C[C@H](N)[C@H](O)[C@H](C)O1 [ADR, doxorubicin, reference compound]	2.76 ± 0.11	–	0.49 ± 0.09	–	–	–	–
CC1(C)[C@@H](O)CC[C@]2(C)[C@H]3C(=O)C=C4[C@@H]5C[C@@](C)(C(=O)O)CC[C@]5(C)CC[C@@]4(C)[C@]3(C)CC[C@@H]12 [GA, glycyrrhetinic acid]	63.4 ± 1.07	84.7 ± 1.73	75.7 ± 1.52	–	–	–	–
COC(=O)/C=C/c1cccc(OC(=O)[C@@]2(C)CC[C@]3(C)CC[C@]4(C)C(=CC(=O)[C@@H]5[C@@]6(C)CC[C@H](OC(=O)[C@@H](N)CC[Se]C)C(C)(C)[C@@H]6CC[C@]54C)[C@@H]3C2)c1 [Compound 54, trans-3-Hydroxycinnamic acid methyl ester 3β-(l-selenomethionine)-11-oxo-olean-12-en-30-oate hydro-chloride]	–	–	–	4.55 ± 0.44	2.46 ± 0.77	3.48 ± 0.82	–
COC(=O)/C=C/c1ccc(OC(=O)[C@@]2(C)CC[C@]3(C)CC[C@]4(C)C(=CC(=O)[C@@H]5[C@@]6(C)CC[C@H](OC(=O)[C@@H](N)CC[Se]C)C(C)(C)[C@@H]6CC[C@]54C)[C@@H]3C2)cc1 [Compound 46, trans-4-Hydroxycinnamic acid methyl ester 3β-(l-selenomethionine)-11-oxo-olean-12-en-30-oate hydrochloride]	–	–	–	6.33 ± 0.19	6.27 ± 0.24	6.02 ± 0.35	–
CCOC(=O)/C=C/c1ccc(OC(=O)[C@@]2(C)CC[C@]3(C)CC[C@]4(C)C(=CC(=O)[C@@H]5[C@@]6(C)CC[C@H](OC(=O)[C@@H](N)CC[Se]C)C(C)(C)[C@@H]6CC[C@]54C)[C@@H]3C2)c(OC)c1 [Compound 44, Ferulic acid ethyl ester 3β-(l-selenomethionine)-11-oxo-olean-12-en-30-oate hydrochloride]	–	–	–	12.3 ± 0.46	3.49 ± 0.61	8.45 ± 0.32	–
COC(=O)/C=C/c1ccc(OC(=O)[C@@]2(C)CC[C@]3(C)CC[C@]4(C)C(=CC(=O)[C@@H]5[C@@]6(C)CC[C@H](OC(=O)[C@@H](N)CC[Se]C)C(C)(C)[C@@H]6CC[C@]54C)[C@@H]3C2)c(OC)c1 [Compound 42, Ferulic acid methyl ester 3β-(l-selenomethionine)-11-oxo-olean-12-en-30-oate hydrochloride]	–	–	–	4.93 ± 0.36	1.37 ± 0.18	1.88 ± 0.2	–
CCOC(=O)/C=C/c1ccc(OC)c(OC(=O)[C@@]2(C)CC[C@]3(C)CC[C@]4(C)C(=CC(=O)[C@@H]5[C@@]6(C)CC[C@H](OC(=O)[C@@H](N)CC[Se]C)C(C)(C)[C@@H]6CC[C@]54C)[C@@H]3C2)c1 [Compound 52, Isoferulic acid ethyl ester 3β-(l-selenomethionine)-11-oxo-olean-12-en-30-oate hydrochloride]	–	–	–	10.1 ± 0.28	3.27 ± 0.66	6.93 ± 0.63	–
CCOC(=O)/C=C/c1ccc(OC(=O)[C@@]2(C)CC[C@]3(C)CC[C@]4(C)C(=CC(=O)[C@@H]5[C@@]6(C)CC[C@H](OC(=O)[C@@H](N)CCSC)C(C)(C)[C@@H]6CC[C@]54C)[C@@H]3C2)cc1 [Compound 47, trans-4-Hydroxycinnamic acid ethyl ester 3β-(l-methionine)-11-oxo-olean-12-en-30-oatehydrochloride]	5.65 ± 1.02	2.31 ± 0.65	2.65 ± 0.12	–	–	–	–
COC(=O)/C=C/c1ccc(OC(=O)[C@@]2(C)CC[C@]3(C)CC[C@]4(C)C(=CC(=O)[C@@H]5[C@@]6(C)CC[C@H](OC(=O)[C@@H](N)CCSC)C(C)(C)[C@@H]6CC[C@]54C)[C@@H]3C2)cc1 [Compound 45, trans-4-Hydroxycinnamic acid methyl ester 3β-(l-methionine)-11-oxo-olean-12-en-30-oate hydrochloride]	8.48 ± 0.73	6.43 ± 0.84	7.24 ± 0.3	–	–	–	–
COC(=O)/C=C/c1ccc(OC)c(OC(=O)[C@@]2(C)CC[C@]3(C)CC[C@]4(C)C(=CC(=O)[C@@H]5[C@@]6(C)CC[C@H](OC(=O)[C@@H](N)CCSC)C(C)(C)[C@@H]6CC[C@]54C)[C@@H]3C2)c1 [Compound 49, Isoferulic acid methyl ester 3β-(l-methionine)-11-oxo-olean-12-en-30-oate hydrochloride]	8.92 ± 0.55	4.56 ± 0.36	8.7 ± 0.14	–	–	–	–
CCOC(=O)/C=C/c1cccc(OC(=O)[C@@]2(C)CC[C@]3(C)CC[C@]4(C)C(=CC(=O)[C@@H]5[C@@]6(C)CC[C@H](OC(=O)[C@@H](N)CCSC)C(C)(C)[C@@H]6CC[C@]54C)[C@@H]3C2)c1 [Compound 55, trans-3-Hydroxycinnamic acid ethyl ester 3β-(l-methionine)-11-oxo-olean-12-en-30-oate hydrochloride]	6.63 ± 0.22	1.92 ± 0.91	5.79 ± 0.85	–	–	–	–
CCOC(=O)/C=C/c1cccc(OC(=O)[C@@]2(C)CC[C@]3(C)CC[C@]4(C)C(=CC(=O)[C@@H]5[C@@]6(C)CC[C@H](OC(=O)[C@@H](N)CC[Se]C)C(C)(C)[C@@H]6CC[C@]54C)[C@@H]3C2)c1 [Compound 56, trans-3-Hydroxycinnamic acid ethyl ester 3β-(l-selenomethionine)-11-oxo-olean-12-en-30-oate hydrochloride]	–	–	–	3.7 ± 0.29	1.53 ± 0.25	2.57 ± 0.4	–
